Experiments:
mutant G2019S LRRK2 = mutant G2019S LRRK2 (Homo sapiens (Human), UniProt Q5S007, G2019S); assay: LRRK2 Lantha Screen kinase assay, mutant enzyme; format: biochemical; conditions: geometric mean of 2-5 determinations unless otherwise indicated (a: >=6 determinations; b: single determination)
CaMK2g = CaMK2g (Homo sapiens (Human), UniProt Q13555); assay: ActivX kinase probe assay (human PBMC); format: binding; conditions: read-out: percent inhibition
CDK2 = CDK2 (Homo sapiens (Human), UniProt P24941); assay: ActivX kinase probe assay (human PBMC); format: binding; conditions: read-out: percent inhibition
EphA1 = EphA1 (Homo sapiens (Human), UniProt P21709); assay: ActivX kinase probe assay (human PBMC); format: binding; conditions: read-out: percent inhibition
FER = FER (Homo sapiens (Human), UniProt P16591); assay: ActivX kinase probe assay (human PBMC); format: binding; conditions: read-out: percent inhibition
FYN = FYN (Homo sapiens (Human), UniProt P06241); assay: ActivX kinase probe assay (human PBMC); format: binding; conditions: read-out: percent inhibition
ILK = ILK (Homo sapiens (Human), UniProt Q13418); assay: ActivX kinase probe assay (human PBMC); format: binding; conditions: read-out: percent inhibition
LATS2 = LATS2 (Homo sapiens (Human), UniProt Q9NRM7); assay: ActivX kinase probe assay (human PBMC); format: binding; conditions: read-out: percent inhibition
LKB1 = LKB1 (Homo sapiens (Human), UniProt Q15831); assay: ActivX kinase probe assay (human PBMC); format: binding; conditions: read-out: percent inhibition
LOK = LOK (Homo sapiens (Human), UniProt O94804); assay: ActivX kinase probe assay (human PBMC); format: binding; conditions: read-out: percent inhibition
MAP3K4 = MAP3K4 (Homo sapiens (Human), UniProt Q9Y6R4); assay: ActivX kinase probe assay (human PBMC); format: binding; conditions: read-out: percent inhibition
MAP3K5 = MAP3K5 (Homo sapiens (Human), UniProt Q99683); assay: ActivX kinase probe assay (human PBMC); format: binding; conditions: read-out: percent inhibition
NEK1 = NEK1 (Homo sapiens (Human), UniProt Q96PY6); assay: ActivX kinase probe assay (human PBMC); format: binding; conditions: read-out: percent inhibition
NEK6, NEK7 = assay: ActivX kinase probe assay (human PBMC); format: binding
NEK7 = NEK7 (Homo sapiens (Human), UniProt Q8TDX7); assay: ActivX kinase probe assay (human PBMC); format: binding; conditions: read-out: percent inhibition
OSR1 = OSR1 (Homo sapiens (Human), UniProt O95747); assay: ActivX kinase probe assay (human PBMC); format: binding; conditions: read-out: percent inhibition
PAN3 = PAN3 (Homo sapiens (Human), UniProt Q58A45); assay: ActivX kinase probe assay (human PBMC); format: binding; conditions: read-out: percent inhibition
PRPK = PRPK (Homo sapiens (Human), UniProt Q96S44); assay: ActivX kinase probe assay (human PBMC); format: binding; conditions: read-out: percent inhibition
Method: Certain of the compounds of the present invention were assessed for kinase selectivity using a commercially available ActiveX targeted kinase probe in which the tissue employed was human peripheral blood mononuclear cells (PBMC). The test compounds were provided to ActivX Biosciences, Inc., 11025 North Torrey Pines Road, Suite 120; LaJolla, Calif., USA 92037. The compounds were run in the ActivX proprietary kinase assay and results were obtained at compound test concentrations of 1 μM (columns 2, 4 and 6) and 0.1 μM (columns 3, 5 and 7). The results as percent inhibition obtained for the compounds of Examples 1, 4 and 217 are provided below in Table 3.

PYK2 = PYK2 (Homo sapiens (Human), UniProt Q14289); assay: ActivX kinase probe assay (human PBMC); format: binding; conditions: read-out: percent inhibition
RSK1 domain1 = RSK1 domain1 (Homo sapiens (Human), UniProt Q15418); assay: ActivX kinase probe assay (human PBMC); format: binding; conditions: read-out: percent inhibition
RSK1, RSK2, RSK3 domain1 = assay: ActivX kinase probe assay (human PBMC); format: binding
SGK3 = SGK3 (Homo sapiens (Human), UniProt Q96BR1); assay: ActivX kinase probe assay (human PBMC); format: binding; conditions: read-out: percent inhibition
SRC = SRC (Homo sapiens (Human), UniProt P12931); assay: ActivX kinase probe assay (human PBMC); format: binding; conditions: read-out: percent inhibition
TBK1 = TBK1 (Homo sapiens (Human), UniProt Q9UHD2); assay: ActivX kinase probe assay (human PBMC); format: binding; conditions: read-out: percent inhibition
ZAK = ZAK (Homo sapiens (Human), UniProt Q9NYL2); assay: ActivX kinase probe assay (human PBMC); format: binding; conditions: read-out: percent inhibition

PRPK, sequence (Q96S44 whole entry): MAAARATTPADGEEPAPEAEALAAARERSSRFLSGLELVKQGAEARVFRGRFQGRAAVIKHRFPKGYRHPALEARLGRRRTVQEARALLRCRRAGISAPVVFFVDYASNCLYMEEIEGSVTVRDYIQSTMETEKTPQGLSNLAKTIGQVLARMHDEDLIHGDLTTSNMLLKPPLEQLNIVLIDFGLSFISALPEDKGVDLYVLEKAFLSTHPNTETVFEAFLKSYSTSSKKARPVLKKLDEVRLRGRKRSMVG
SGK3, sequence (Q96BR1 whole entry): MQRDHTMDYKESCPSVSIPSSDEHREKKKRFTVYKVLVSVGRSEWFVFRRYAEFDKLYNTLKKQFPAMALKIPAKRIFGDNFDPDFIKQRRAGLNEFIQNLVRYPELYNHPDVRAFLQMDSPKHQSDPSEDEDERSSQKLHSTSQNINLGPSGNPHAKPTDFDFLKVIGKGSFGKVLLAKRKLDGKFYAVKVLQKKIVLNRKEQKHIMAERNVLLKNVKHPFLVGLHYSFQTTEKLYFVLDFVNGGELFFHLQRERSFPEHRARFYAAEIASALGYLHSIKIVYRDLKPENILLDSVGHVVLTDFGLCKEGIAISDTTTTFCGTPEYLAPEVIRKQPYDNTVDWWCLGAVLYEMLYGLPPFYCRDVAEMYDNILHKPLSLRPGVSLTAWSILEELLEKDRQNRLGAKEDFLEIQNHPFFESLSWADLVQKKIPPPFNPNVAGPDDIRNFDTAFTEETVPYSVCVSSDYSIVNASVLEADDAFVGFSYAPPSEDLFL
LOK, sequence (O94804 whole entry): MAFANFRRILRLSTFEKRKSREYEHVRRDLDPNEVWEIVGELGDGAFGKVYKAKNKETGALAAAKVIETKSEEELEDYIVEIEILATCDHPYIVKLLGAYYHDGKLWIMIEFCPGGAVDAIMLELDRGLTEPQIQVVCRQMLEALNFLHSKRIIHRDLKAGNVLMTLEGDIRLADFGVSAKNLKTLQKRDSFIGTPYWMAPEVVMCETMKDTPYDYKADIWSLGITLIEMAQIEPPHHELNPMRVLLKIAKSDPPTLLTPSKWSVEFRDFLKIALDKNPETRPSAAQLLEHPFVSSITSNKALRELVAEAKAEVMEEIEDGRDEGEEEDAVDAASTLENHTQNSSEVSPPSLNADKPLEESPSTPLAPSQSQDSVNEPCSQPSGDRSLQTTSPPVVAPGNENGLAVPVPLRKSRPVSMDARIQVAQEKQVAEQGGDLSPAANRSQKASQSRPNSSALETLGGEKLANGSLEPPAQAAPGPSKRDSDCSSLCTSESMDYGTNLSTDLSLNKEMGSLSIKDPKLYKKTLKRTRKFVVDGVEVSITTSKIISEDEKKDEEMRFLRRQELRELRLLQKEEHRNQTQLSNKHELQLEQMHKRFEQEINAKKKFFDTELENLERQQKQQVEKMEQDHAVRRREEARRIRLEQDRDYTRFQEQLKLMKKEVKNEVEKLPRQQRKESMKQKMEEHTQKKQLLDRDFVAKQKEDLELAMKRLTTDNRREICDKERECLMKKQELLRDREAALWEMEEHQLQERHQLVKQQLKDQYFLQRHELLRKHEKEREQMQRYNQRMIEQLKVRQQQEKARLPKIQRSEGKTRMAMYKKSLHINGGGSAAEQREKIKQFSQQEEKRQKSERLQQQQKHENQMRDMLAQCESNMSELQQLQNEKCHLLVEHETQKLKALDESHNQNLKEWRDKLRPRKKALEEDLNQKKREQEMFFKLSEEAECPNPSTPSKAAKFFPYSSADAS
PAN3, sequence (Q58A45 whole entry): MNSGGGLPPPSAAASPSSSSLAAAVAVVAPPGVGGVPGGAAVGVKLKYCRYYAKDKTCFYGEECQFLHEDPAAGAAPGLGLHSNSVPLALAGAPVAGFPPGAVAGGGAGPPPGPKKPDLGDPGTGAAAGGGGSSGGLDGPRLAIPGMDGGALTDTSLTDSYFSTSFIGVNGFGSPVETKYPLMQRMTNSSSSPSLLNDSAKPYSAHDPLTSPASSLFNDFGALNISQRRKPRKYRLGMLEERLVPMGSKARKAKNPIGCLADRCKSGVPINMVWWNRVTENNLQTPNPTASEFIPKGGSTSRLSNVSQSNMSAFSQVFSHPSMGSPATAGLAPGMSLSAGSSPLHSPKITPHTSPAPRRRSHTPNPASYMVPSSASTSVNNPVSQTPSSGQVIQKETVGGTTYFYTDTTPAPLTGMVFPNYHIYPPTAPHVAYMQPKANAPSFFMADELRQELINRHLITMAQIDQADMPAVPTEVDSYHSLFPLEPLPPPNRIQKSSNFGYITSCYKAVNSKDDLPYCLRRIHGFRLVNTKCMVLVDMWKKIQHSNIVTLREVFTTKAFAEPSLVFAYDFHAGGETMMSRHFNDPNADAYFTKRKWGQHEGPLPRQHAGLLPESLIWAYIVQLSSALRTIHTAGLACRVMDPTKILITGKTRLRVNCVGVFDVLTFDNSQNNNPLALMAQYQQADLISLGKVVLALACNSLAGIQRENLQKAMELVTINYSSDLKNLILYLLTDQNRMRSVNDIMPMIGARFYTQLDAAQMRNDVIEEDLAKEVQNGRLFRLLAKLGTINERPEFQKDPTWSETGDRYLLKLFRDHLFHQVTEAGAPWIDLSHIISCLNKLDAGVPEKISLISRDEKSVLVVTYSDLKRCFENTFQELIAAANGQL
TBK1, sequence (Q9UHD2 whole entry): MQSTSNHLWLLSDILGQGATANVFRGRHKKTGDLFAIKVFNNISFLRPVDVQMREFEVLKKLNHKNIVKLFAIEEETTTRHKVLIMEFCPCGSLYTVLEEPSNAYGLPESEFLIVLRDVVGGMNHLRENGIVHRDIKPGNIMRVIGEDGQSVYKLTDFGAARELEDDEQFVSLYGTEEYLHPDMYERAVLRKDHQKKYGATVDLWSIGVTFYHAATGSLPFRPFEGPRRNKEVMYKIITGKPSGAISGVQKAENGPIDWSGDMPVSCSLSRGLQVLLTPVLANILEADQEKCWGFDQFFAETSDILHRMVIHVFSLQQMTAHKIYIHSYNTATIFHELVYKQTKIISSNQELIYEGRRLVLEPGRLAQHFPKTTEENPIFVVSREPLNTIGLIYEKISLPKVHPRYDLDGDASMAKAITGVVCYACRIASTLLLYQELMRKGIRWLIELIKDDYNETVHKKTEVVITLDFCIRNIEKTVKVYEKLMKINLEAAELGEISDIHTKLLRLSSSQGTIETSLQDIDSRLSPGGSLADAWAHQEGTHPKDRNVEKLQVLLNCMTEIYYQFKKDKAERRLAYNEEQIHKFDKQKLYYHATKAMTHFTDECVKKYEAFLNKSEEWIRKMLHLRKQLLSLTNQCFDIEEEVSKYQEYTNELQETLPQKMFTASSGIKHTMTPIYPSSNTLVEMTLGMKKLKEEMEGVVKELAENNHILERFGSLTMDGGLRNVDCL
OSR1, sequence (O95747 whole entry): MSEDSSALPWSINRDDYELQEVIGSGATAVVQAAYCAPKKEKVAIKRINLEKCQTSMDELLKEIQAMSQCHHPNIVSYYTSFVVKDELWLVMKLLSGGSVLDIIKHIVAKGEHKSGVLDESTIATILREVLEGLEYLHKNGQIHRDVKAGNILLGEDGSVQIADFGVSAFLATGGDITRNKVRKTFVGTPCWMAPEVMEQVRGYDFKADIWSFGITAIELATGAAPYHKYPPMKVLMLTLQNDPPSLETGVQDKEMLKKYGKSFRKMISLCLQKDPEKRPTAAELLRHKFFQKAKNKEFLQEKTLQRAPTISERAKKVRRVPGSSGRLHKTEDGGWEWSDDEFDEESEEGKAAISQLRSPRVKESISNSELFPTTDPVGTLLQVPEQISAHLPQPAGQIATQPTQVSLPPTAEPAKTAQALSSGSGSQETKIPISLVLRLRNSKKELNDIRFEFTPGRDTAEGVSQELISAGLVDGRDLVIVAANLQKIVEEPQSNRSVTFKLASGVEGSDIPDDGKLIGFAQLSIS
EphA1, sequence (P21709 26-976): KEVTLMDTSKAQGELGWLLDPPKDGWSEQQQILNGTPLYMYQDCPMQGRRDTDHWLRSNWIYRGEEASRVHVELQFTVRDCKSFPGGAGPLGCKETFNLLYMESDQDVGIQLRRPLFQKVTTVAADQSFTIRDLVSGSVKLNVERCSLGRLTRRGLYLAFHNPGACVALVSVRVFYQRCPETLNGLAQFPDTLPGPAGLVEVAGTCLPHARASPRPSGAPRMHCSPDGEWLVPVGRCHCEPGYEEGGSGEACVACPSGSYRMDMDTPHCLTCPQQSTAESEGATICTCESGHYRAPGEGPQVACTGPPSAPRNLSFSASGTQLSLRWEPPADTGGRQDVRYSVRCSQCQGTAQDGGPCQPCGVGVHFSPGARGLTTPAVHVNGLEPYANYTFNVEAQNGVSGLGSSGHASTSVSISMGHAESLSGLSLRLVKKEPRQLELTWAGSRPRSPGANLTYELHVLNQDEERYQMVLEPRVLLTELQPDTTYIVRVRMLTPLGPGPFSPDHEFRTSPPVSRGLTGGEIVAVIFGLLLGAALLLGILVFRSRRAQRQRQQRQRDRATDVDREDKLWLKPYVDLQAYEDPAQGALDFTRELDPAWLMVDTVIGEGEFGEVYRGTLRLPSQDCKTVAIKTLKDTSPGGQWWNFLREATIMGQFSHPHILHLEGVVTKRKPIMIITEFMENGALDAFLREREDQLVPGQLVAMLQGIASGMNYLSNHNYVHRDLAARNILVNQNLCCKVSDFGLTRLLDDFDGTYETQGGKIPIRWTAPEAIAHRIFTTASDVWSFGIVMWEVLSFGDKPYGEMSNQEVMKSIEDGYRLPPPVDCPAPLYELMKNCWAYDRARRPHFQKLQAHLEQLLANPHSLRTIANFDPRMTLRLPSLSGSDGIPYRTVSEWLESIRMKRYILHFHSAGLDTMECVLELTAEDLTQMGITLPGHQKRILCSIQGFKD

N#Cc1cccc(-c2c[nH]c3ncnc(N4CCOCC4)c23)c1 [Example 4, 3-[4-(Morpholin-4-yl)-7H-pyrrolo[2,3-d]pyrimidin-5-yl]benzonitrile]
IC50 (mutant G2019S LRRK2): 11 nM | inhibition at 0.1 µM (CaMK2g): -13.6% | inhibition at 1 µM (CaMK2g): 2.9% | inhibition at 0.1 µM (CDK2): 11% | inhibition at 1 µM (CDK2): 9.2% | inhibition at 0.1 µM (EphA1): -17% | inhibition at 1 µM (EphA1): -2.5% | inhibition at 0.1 µM (FER): -26.4% | inhibition at 1 µM (FER): 1.6% | inhibition at 0.1 µM (FYN): -1.9% | inhibition at 1 µM (FYN): -9.1% | inhibition at 0.1 µM (ILK): -8.9% | inhibition at 1 µM (ILK): -31.6% | inhibition at 0.1 µM (LATS2): -7.2% | inhibition at 1 µM (LATS2): 16.2% | inhibition at 0.1 µM (LKB1): 3.5% | inhibition at 1 µM (LKB1): 16.5% | inhibition at 0.1 µM (LOK): 11.9% | inhibition at 1 µM (LOK): 53.6% | inhibition at 0.1 µM (MAP3K4): 9.7% | inhibition at 1 µM (MAP3K4): 29.8% | inhibition at 0.1 µM (MAP3K5): 3.3% | inhibition at 1 µM (MAP3K5): 21.3% | inhibition at 0.1 µM (NEK1): -8.9% | inhibition at 1 µM (NEK1): -1.9% | percent inhibition (NEK6, NEK7; 0.1 μM): −5.3% | percent inhibition (NEK6, NEK7; 1 μM): −4.9% | inhibition at 0.1 µM (NEK7): 2.2% | inhibition at 1 µM (NEK7): 7.3% | inhibition at 0.1 µM (OSR1): -23.1% | inhibition at 1 µM (OSR1): -55.4% | inhibition at 0.1 µM (PAN3): -0.2% | inhibition at 1 µM (PAN3): 15.1% | inhibition at 0.1 µM (PRPK; 0.1 μM): 3% | inhibition at 1 µM (PRPK; 1 μM): -3.7% | inhibition at 0.1 µM (PYK2): -3.9% | inhibition at 1 µM (PYK2): 2.5% | inhibition at 0.1 µM (RSK1 domain1): -26.8% | inhibition at 1 µM (RSK1 domain1): 32.9% | percent inhibition (RSK1, RSK2, RSK3 domain1; 0.1 μM): −0.4% | percent inhibition (RSK1, RSK2, RSK3 domain1; 1 μM): 13.4% | inhibition at 0.1 µM (SGK3): -5.5% | inhibition at 1 µM (SGK3): -0.8% | inhibition at 0.1 µM (SRC): -18.3% | inhibition at 1 µM (SRC): -2.2% | inhibition at 0.1 µM (TBK1): 7.3% | inhibition at 1 µM (TBK1): 16.4% | inhibition at 0.1 µM (ZAK): -20.5% | inhibition at 1 µM (ZAK): -42.2%
